17 molecules from patent US12331054B2, “Perk inhibiting imidazolopyrazine compounds” (HiberCell, Inc., priority 2019, dated 2025) can be followed below.

Experiment [1] has as its system eIF2α in HEK293-EGFP-eIF2α cells. The experiment can be described thus: PERK Cellular Assay (HEK293-EGFP-eIF2α cells, tunicamycin-induced ER stress, TR-FRET). The conditions noted are these: tunicamycin 2 hours. The experiment is classed as cell-based. In a few lines: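 Cells pre-incubated with inhibitor 30 min at 37 °C, then ER stress induced with […] tunicamycin for 2 h. TR-FRET read on lysates; ratio normalized to DMSO control as percent inhibition over a 10-point, 3-fold dilution series; IC50 from 4-parameter logistic fit.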

Experiment [2] concerns the target Recombinant human EIF2AK3 (PERK) catalytic domain (amino acids 536-1116) (Homo sapiens (Human), UniProt Q9NZJ5). The experiment can be described thus: PERK In Vitro Activity Assay (isolated), TR-FRET kinase assay. The following applies: isolated PERK enzyme, 1.5 μM ATP, read-out: Biochemical IC50. The procedure, abridged:
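Recombinant PERK catalytic domain was incubated with 100–200 nM GFP-eIF2a substrate in 50 mM HEPES pH 7.5, 10 mM MgCl2, 1.0 mM EGTA and 0.01% Brij-35 for 45 min at room temperature. After a 10 mM EDTA stop, 2 nM Tb-anti-phospho-eIF2a was added for 90 min, and IC50 was fitted from TR-FRET ratios by 4-parameter logistic regression.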

Recombinant human EIF2AK3 (PERK) catalytic domain (amino acids 536-1116), sequence (Q9NZJ5 536-1116): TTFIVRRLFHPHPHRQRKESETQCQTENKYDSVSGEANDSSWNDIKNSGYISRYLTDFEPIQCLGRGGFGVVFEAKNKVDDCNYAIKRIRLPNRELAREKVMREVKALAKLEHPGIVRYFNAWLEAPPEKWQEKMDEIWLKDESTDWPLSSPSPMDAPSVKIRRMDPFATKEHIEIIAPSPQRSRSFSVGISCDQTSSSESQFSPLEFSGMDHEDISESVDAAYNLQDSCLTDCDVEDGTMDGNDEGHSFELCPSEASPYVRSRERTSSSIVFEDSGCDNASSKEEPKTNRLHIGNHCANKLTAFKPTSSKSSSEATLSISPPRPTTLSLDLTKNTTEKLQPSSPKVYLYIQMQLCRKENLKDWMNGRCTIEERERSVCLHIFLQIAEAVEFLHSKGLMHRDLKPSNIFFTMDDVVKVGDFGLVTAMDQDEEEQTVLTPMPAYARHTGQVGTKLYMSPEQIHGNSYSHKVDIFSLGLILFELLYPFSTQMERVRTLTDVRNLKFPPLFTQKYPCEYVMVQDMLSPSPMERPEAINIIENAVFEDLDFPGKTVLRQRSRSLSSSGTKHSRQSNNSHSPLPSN

Consider `[2H]C([2H])([2H])c1nc(-c2ccc(NC(=O)C(O)c3cccc(F)c3)cc2C)c2c(N)ncc(Cl)n12` (stereo not shown) [Example 32, N-[4-[8-amino-5-chloro-3-(trideuteriomethyl)imidazo[1,5-a]pyrazin-1-yl]-3-methyl-phenyl]-2-(3-fluorophenyl)-2-hydroxy-acetamide], for which the IC50 in experiment [1] and in experiment [2] was 1 to 25 nM throughout.
Turning to `Cc1cccc(C(O)C(=O)Nc2ccc(-c3nc(C)n4c(C)cnc(N)c34)c(F)c2)c1` (stereo not shown) [Example 89, N-(4-(8-amino-3,5-dimethylimidazo [1,5-a]pyrazin-1-yl)-3-fluoro-phenyl)-2-hydroxy-2-(m-tolyl)acetamide], the IC50 lay within 51 to 100 nM in experiment [1] and 1 to 25 nM in experiment [2].
The matching figures for `Cc1cn2c(C)nc(-c3ccc(NC(=O)C(O)c4cccc(F)c4)cc3C)c2c(N)n1` (single isomer, unassigned) [Example 3, N-(4-(8-amino-3,6-dimethylimidazo[1,5-a]pyrazin-1-yl)-3-methylphenyl)-2-(3-fluorophenyl)-2-hydroxyacetamide]: 26 to 50 nM and 1 to 25 nM.
Regarding `[2H]C([2H])([2H])c1nc(-c2ccc(NC(=O)C(O)c3cc(F)cc(C(F)(F)F)c3)c(F)c2F)c2c(N)ncc(Cl)n12` (stereo not shown) [Example 165, N-[4-[8-amino-5-chloro-3-(trideuteriomethyl)imidazo[1,5-a]pyrazin-1-yl]-2,3-difluoro-phenyl]-2-[3-fluoro-5-(trifluoromethyl)phenyl]-2-hydroxy-acetamide], the results for the IC50 in experiment [1] and in experiment [2] were 101 to 250 nM and 26 to 50 nM, respectively.
In the case of `[2H]C([2H])([2H])c1nc(-c2ccc(NC(=O)C(O)c3cc(F)cc(F)c3)c(F)c2F)c2c(N)ncc(Cl)n12` (stereo not shown) [Example 157, N-[4-[8-amino-5-chloro-3-(trideuteriomethyl)imidazo[1,5-a]pyrazin-1-yl]-2,3-difluoro-phenyl]-2-(3,5-difluorophenyl)-2-hydroxy-acetamide], the IC50 in experiment [1] lay in the range of 51 to 100 nM; in experiment [2], 1 to 25 nM.
The matching figures for `[2H]C([2H])([2H])c1nc(-c2ccc(NC(=O)C(O)c3cccc(Cl)c3)cc2F)c2c(N)ncc(C(F)(F)F)n12` (stereo not shown) [Example 83, N-[4-[8-amino-3-(trideuteriomethyl)-5-(trifluoromethyl)imidazo[1,5-a]pyrazin-1-yl]-3-fluoro-phenyl]-2-(3-chlorophenyl)-2-hydroxy-acetamide]: 51 to 100 nM and 1 to 25 nM.
Turning to `[2H]C([2H])([2H])c1nc(-c2ccc(NC(=O)C(O)c3cccc(F)c3)cc2C)c2c(N)ncc(C)n12` (stereo not shown) [Example 10, N-(4-(8-amino-5-methyl-3-(trideuteriomethyl)imidazo[1,5-a]pyrazin-1-yl)-3-methylphenyl)-2-(3-fluorophenyl)-2-hydroxyacetamide], the IC50 in experiment [1] (2 h) and in experiment [2] was 1 to 25 nM throughout.
`[2H]C([2H])([2H])c1nc(-c2ccc(NC(=O)C(O)c3cccc(C(F)(F)F)c3)cc2F)c2c(N)ncc(Cl)n12` (stereo not shown) [Example 100, N-[4-[8-amino-5-chloro-3-(trideuteriomethyl)imidazo[1,5-a]pyrazin-1-yl]-3-fluoro-phenyl]-2-hydroxy-2-[3-(trifluoromethyl)phenyl]acetamide]: the IC50 in experiment [1] (2 h) and in experiment [2] was 1 to 25 nM each time.
As for `Cc1cc(NC(=O)C(O)c2cc(F)cc(C(F)(F)F)c2)ccc1-c1nc(C)n2c(C)cnc(N)c12` (stereo not shown) [Example 59, N-(4-(8-amino-3,5-dimethylimidazo [1,5-a]pyrazin-1-yl)-3-methylphenyl)-2-(3-fluoro-5-(trifluoromethyl)phenyl)-2-hydroxyacetamide], the IC50 in experiment [1] is 101 to 250 nM; in experiment [2], 1 to 25 nM.
For `[2H]C([2H])([2H])c1nc(-c2ccc(NC(=O)C(O)c3cccc(F)c3)cc2C)c2c(N)ncc(C(F)(F)F)n12` (stereo not shown) [Example 30, N-[4-[8-amino-3-(trideuteriomethyl)-5-(trifluoromethyl)imidazo[1,5-a]pyrazin-1-yl]-3-methyl-phenyl]-2-(3-fluorophenyl)-2-hydroxy-acetamide], the IC50 in experiment [1] and in experiment [2] was 1 to 25 nM throughout.
With `[2H]C([2H])([2H])c1nc(-c2ccc(NC(=O)C(O)c3cccc(C)c3)cc2F)c2c(N)ncc(C)n12` (stereo not shown) [Example 91, N-[4-[8-amino-5-methyl-3-(trideuteriomethyl)imidazo[1,5-a]pyrazin-1-yl]-3-fluoro-phenyl]-2-hydroxy-2-(m-tolyl)acetamide], the IC50 in experiment [1] was 51 to 100 nM; in experiment [2], 1 to 25 nM.
For the molecule `[2H]C([2H])([2H])c1nc(-c2ccc(NC(=O)C(O)c3cccc(C(F)(F)F)c3)c(F)c2F)c2c(N)ncc(C)n12` (stereo not shown) [Example 147, N-[4-[8-amino-5-methyl-3-(trideuteriomethyl)imidazo[1,5-a]pyrazin-1-yl]-2,3-difluoro-phenyl]-2-hydroxy-2-[3-(trifluoromethyl)phenyl]acetamide], the figures for the IC50 in experiment [1] and in experiment [2] were 101 to 250 nM and 26 to 50 nM, respectively.
The corresponding values for `[2H]C([2H])([2H])c1nc(-c2ccc(NC(=O)C(O)c3cc(F)cc(C(F)(F)F)c3)cc2F)c2c(N)ncc(Cl)n12` (stereo not shown) [Example 115, N-[4-[8-amino-5-chloro-3-(trideuteriomethyl)imidazo[1,5-a]pyrazin-1-yl]-3-fluoro-phenyl]-2-[3-fluoro-5-(trifluoromethyl)phenyl]-2-hydroxy-acetamide] are 26 to 50 nM and 1 to 25 nM.
As for `[2H]C([2H])([2H])c1nc(-c2ccc(NC(=O)C(O)c3cc(F)cc(C(F)(F)F)c3)cc2C)c2c(N)nc(C)cn12` (stereo not shown) [Example 53, N-[4-[8-amino-6-methyl-3-(trideuteriomethyl)imidazo[1,5-a]pyrazin-1-yl]-3-methyl-phenyl]-2-[3-fluoro-5-(trifluoromethyl)phenyl]-2-hydroxy-acetamide], the IC50 in experiment [1] fell in the range of 501 to 1000 nM; in experiment [2], 101 to 250 nM.
The corresponding values for `[2H]C([2H])([2H])c1nc(-c2ccc(NC(=O)C(O)c3cc(F)cc(C(F)(F)F)c3)cc2F)c2c(N)ncc(C(F)(F)F)n12` (stereo not shown) [Example 113, N-[4-[8-amino-3-(trideuteriomethyl)-5-(trifluoromethyl)imidazo[1,5-a]pyrazin-1-yl]-3-fluoro-phenyl]-2-[3-fluoro-5-(trifluoromethyl)phenyl]-2-hydroxy-acetamide] are 101 to 250 nM and 51 to 100 nM.
The matching figures for `[2H]C([2H])([2H])c1nc(-c2ccc(NC(=O)C(O)c3cc(F)cc(F)c3)cc2C)c2c(N)ncc(C(F)(F)F)n12` (stereo not shown) [Example 46, N-[4-[8-amino-3-(trideuteriomethyl)-5-(trifluoromethyl)imidazo[1,5-a]pyrazin-1-yl]-3-methyl-phenyl]-2-(3,5-difluoro-phenyl)-2-hydroxy-acetamide]: 26 to 50 nM and 1 to 25 nM.
With `[2H]C([2H])([2H])c1nc(-c2ccc(NC(=O)C(O)c3cccc(F)c3)cc2C)c2c(N)ncc(C(F)(F)F)n12` (stereo not shown) [Example 31, N-[4-[8-amino-3-(trideuteriomethyl)-5-(trifluoromethyl)imidazo[1,5-a]pyrazin-1-yl]-3-methyl-phenyl]-2-(3-fluorophenyl)-2-hydroxy-acetamide], the results for the IC50 in experiment [1] and in experiment [2] were 251 to 500 nM and 1 to 25 nM, respectively.
